In ChEMBL document CHEMBL5257159, “Insights into targeting SARS-CoV-2: design, synthesis, in silico studies and antiviral evaluation of new dimethylxanthine derivatives” (RSC Med Chem, 2023):
The source made the active and inactive calls. No cut-off for these calls is given here.

Columns and labels:
SARS-CoV-2 = assay: Antiviral activity against SARS-CoV-2 NRC-03-nhCoV infected in african green monkey Vero E6 cells assessed as inhibition of virus-induced cytopathic effect measured after 72 hrs by crystal violet staining based assay; assay type: functional, organism-based; conditions: Severe acute respiratory syndrome coronavirus 2, NRC-03-nhCoV, Vero C1008, 72 h
[1] = Selectivity index, ratio of CC50 for african green monkey Vero E6 cells to IC50 for antiviral activity against SARS-CoV-2 NRC-03-nhCoV infected in african green monkey Vero E6 cells; assay type: toxicity, Vero C1008; conditions: read-out: Ratio CC50/IC50
[2] = Cytotoxicity against African green monkey Vero E6 cells measured after 72 hrs by MTT assay; assay type: toxicity, cell-based, Vero C1008; conditions: chlorocebus sabaeus
HCT-116 = assay: Cytotoxicity against human HCT-116 cells assessed as inhibition of cell growth incubated for 48 hrs by SRB assay; assay type: functional, cell-based
HOP-62 = assay: Growth inhibition of human HOP-62 cells incubated for 48 hrs by SRB assay relative to control; assay type: functional
NCI-H460 = assay: Cytotoxicity against human NCI-H460 cells assessed as inhibition of cell growth incubated for 48 hrs by SRB assay; assay type: functional, cell-based
MDA-MB-468 = assay: Cytotoxicity against human MDA-MB-468 cells assessed as inhibition of cell growth incubated for 48 hrs by SRB assay; assay type: functional, cell-based
MCF7 = assay: Cytotoxicity against human MCF7 cells assessed as inhibition of cell growth incubated for 48 hrs by SRB assay; assay type: functional, cell-based
A549 = assay: Cytotoxicity against human A549 cells assessed as inhibition of cell growth incubated for 48 hrs by SRB assay; assay type: functional, cell-based
NCI/ADR-RES = assay: Cytotoxicity against human NCI/ADR-RES cells assessed as inhibition of cell growth incubated for 48 hrs by SRB assay; assay type: functional, cell-based
SNB-19 = assay: Cytotoxicity against human SNB-19 cells assessed as inhibition of cell growth incubated for 48 hrs by SRB assay; assay type: functional, cell-based
BT-549 = assay: Cytotoxicity against human BT-549 cells assessed as inhibition of cell growth incubated for 48 hrs by SRB assay; assay type: functional, cell-based
T47D = assay: Cytotoxicity against human T47D cells assessed as inhibition of cell growth incubated for 48 hrs by SRB assay; assay type: functional, cell-based
786-0 = assay: Cytotoxicity against human 786-0 cells assessed as inhibition of cell growth incubated for 48 hrs by SRB assay; assay type: functional, cell-based
OVCAR-3 = assay: Cytotoxicity against human OVCAR-3 cells assessed as inhibition of cell growth incubated for 48 hrs by SRB assay; assay type: functional, cell-based
COLO 205 = assay: Cytotoxicity against human COLO 205 cells assessed as inhibition of cell growth incubated for 48 hrs by SRB assay; assay type: functional, cell-based
OVCAR-5 = assay: Cytotoxicity against human OVCAR-5 cells assessed as inhibition of cell growth incubated for 48 hrs by SRB assay; assay type: functional, cell-based
ACHN = assay: Cytotoxicity against human ACHN cells assessed as inhibition of cell growth incubated for 48 hrs by SRB assay; assay type: functional, cell-based
SF-539 = assay: Cytotoxicity against human SF-539 cells assessed as inhibition of cell growth incubated for 48 hrs by SRB assay; assay type: functional, cell-based
HCT-15 = assay: Cytotoxicity against human HCT-15 cells assessed as inhibition of cell growth incubated for 48 hrs by SRB assay; assay type: functional, cell-based
NCI-H226 = assay: Cytotoxicity against human NCI-H226 cells assessed as inhibition of cell growth incubated for 48 hrs by SRB assay; assay type: functional, cell-based
CCRF-CEM = assay: Cytotoxicity against human CCRF-CEM cells assessed as inhibition of cell growth incubated for 48 hrs by SRB assay; assay type: functional, cell-based
SK-MEL-5 = assay: Cytotoxicity against human SK-MEL-5 cells assessed as inhibition of cell growth incubated for 48 hrs by SRB assay; assay type: functional, cell-based
SK-MEL-2 = assay: Cytotoxicity against human SK-MEL-2 cells assessed as inhibition of cell growth incubated for 48 hrs by SRB assay; assay type: functional, cell-based
OVCAR-4 = assay: Cytotoxicity against human OVCAR-4 cells assessed as inhibition of cell growth incubated for 48 hrs by SRB assay; assay type: functional, cell-based
SK-MEL-28 = assay: Cytotoxicity against human SK-MEL-28 cells assessed as inhibition of cell growth incubated for 48 hrs by SRB assay; assay type: functional, cell-based
OVCAR-8 = assay: Cytotoxicity against human OVCAR-8 cells assessed as inhibition of cell growth incubated for 48 hrs by SRB assay; assay type: functional, cell-based
SW-620 = assay: Cytotoxicity against human SW620 cells assessed as inhibition of cell growth incubated for 48 hrs by SRB assay; assay type: functional, cell-based
Hs578Bst = assay: Cytotoxicity against human Hs578Bst cells assessed as inhibition of cell growth incubated for 48 hrs by SRB assay; assay type: functional, cell-based
TK-10 = assay: Cytotoxicity against human TK-10 cells assessed as inhibition of cell growth incubated for 48 hrs by SRB assay; assay type: functional, cell-based
SR = assay: Cytotoxicity against human SR cells assessed as inhibition of cell growth incubated for 48 hrs by SRB assay; assay type: functional, cell-based
PC-3 = assay: Cytotoxicity against human PC-3 cells assessed as inhibition of cell growth incubated for 48 hrs by SRB assay; assay type: functional, cell-based
RXF 393 = assay: Cytotoxicity against human RXF 393 cells assessed as inhibition of cell growth incubated for 48 hrs by SRB assay; assay type: functional, cell-based
A498 = assay: Cytotoxicity against human A498 cells assessed as inhibition of cell growth incubated for 48 hrs by SRB assay; assay type: functional, cell-based
Malme-3M = assay: Cytotoxicity against human Malme-3M cells assessed as inhibition of cell growth incubated for 48 hrs by SRB assay; assay type: functional, cell-based
HCC 2998 = assay: Cytotoxicity against human HCC 2998 cells assessed as inhibition of cell growth incubated for 48 hrs by SRB assay; assay type: functional, cell-based
KM12 = assay: Cytotoxicity against human KM12 cells assessed as inhibition of cell growth incubated for 48 hrs by SRB assay; assay type: functional, cell-based
NCI-H322M = assay: Cytotoxicity against human NCI-H322M cells assessed as inhibition of cell growth incubated for 48 hrs by SRB assay; assay type: functional, cell-based
SNB-75 = assay: Cytotoxicity against human SNB-75 cells assessed as inhibition of cell growth incubated for 48 hrs by SRB assay; assay type: functional, cell-based
MDA-MB-231 = assay: Cytotoxicity against human MDA-MB-231 cells assessed as inhibition of cell growth incubated for 48 hrs by SRB assay; assay type: functional, cell-based
HOP-92 = assay: Cytotoxicity against human HOP-92 cells assessed as inhibition of cell growth incubated for 48 hrs by SRB assay; assay type: functional, cell-based
NCI-H522 = assay: Cytotoxicity against human NCI-H522 cells assessed as inhibition of cell growth incubated for 48 hrs by SRB assay; assay type: functional, cell-based
MOLT-4 = assay: Cytotoxicity against human MOLT-4 cells assessed as inhibition of cell growth incubated for 48 hrs by SRB assay; assay type: functional, cell-based
UACC-257 = assay: Cytotoxicity against human UACC-257 cells assessed as inhibition of cell growth incubated for 48 hrs by SRB assay; assay type: functional, cell-based
HT-29 = assay: Cytotoxicity against human HT-29 cells assessed as inhibition of cell growth incubated for 48 hrs by SRB assay; assay type: functional, cell-based
M14 = assay: Cytotoxicity against human M14 cells assessed as inhibition of cell growth incubated for 48 hrs by SRB assay; assay type: functional, cell-based
IGROV-1 = assay: Cytotoxicity against human IGROV-1 cells assessed as inhibition of cell growth incubated for 48 hrs by SRB assay; assay type: functional, cell-based
UO-31 = assay: Cytotoxicity against human UO-31 cells assessed as inhibition of cell growth incubated for 48 hrs by SRB assay; assay type: functional, cell-based
K562 = assay: Cytotoxicity against human K562 cells assessed as inhibition of cell growth incubated for 48 hrs by SRB assay; assay type: functional, cell-based
LOX IMVI = assay: Cytotoxicity against human LOX IMVI cells assessed as inhibition of cell growth incubated for 48 hrs by SRB assay; assay type: functional, cell-based
EKVX = assay: Cytotoxicity against human EKVX cells assessed as inhibition of cell growth incubated for 48 hrs by SRB assay; assay type: functional, cell-based
SN12C = assay: Cytotoxicity against human SN12C cells assessed as inhibition of cell growth incubated for 48 hrs by SRB assay; assay type: functional, cell-based
NCI-H23 = assay: Cytotoxicity against human NCI-H23 cells assessed as inhibition of cell growth incubated for 48 hrs by SRB assay; assay type: functional, cell-based
MDA-MB-435 = assay: Cytotoxicity against human MDA-MB-435 cells assessed as inhibition of cell growth incubated for 48 hrs by SRB assay; assay type: functional, cell-based
SF-295 = assay: Cytotoxicity against human SF-295 cells assessed as inhibition of cell growth incubated for 48 hrs by SRB assay; assay type: functional, cell-based
HL-60(TB) = assay: Cytotoxicity against human HL-60(TB) cells assessed as inhibition of cell growth incubated for 48 hrs by SRB assay; assay type: functional, cell-based
DU-145 = assay: Cytotoxicity against human DU-145 cells assessed as inhibition of cell growth incubated for 48 hrs by SRB assay; assay type: functional, cell-based
RPMI-8226 = assay: Cytotoxicity against human […] cells assessed as inhibition of cell growth incubated for 48 hrs by SRB assay; assay type: functional, cell-based
SK-OV-3 = assay: Cytotoxicity against human SK-OV-3 cells assessed as inhibition of cell growth incubated for 48 hrs by SRB assay; assay type: functional, cell-based
SF-268 = assay: Cytotoxicity against human SF-268 cells assessed as inhibition of cell growth incubated for 48 hrs by SRB assay; assay type: functional, cell-based
U-251 = assay: Cytotoxicity against human U-251 cells assessed as inhibition of cell growth incubated for 48 hrs by SRB assay; assay type: functional, cell-based
CAKI-1 = assay: Cytotoxicity against human CAKI-1 cells assessed as inhibition of cell growth incubated for 48 hrs by SRB assay; assay type: functional, cell-based

## Cn1c(=O)c2c(nc3n2CC=C(O)N3c2ccc(S(N)(=O)=O)cc2)n(C)c1=O
SARS-CoV-2
  IC50: 16 µM
[1]
  selectivity ratio: 127
[2]
  CC50 at 72 h: 2040 µM

## Cn1c(=O)c2c(ncn2CCC(=O)Nc2ccc(S(=O)(=O)Nc3ncccn3)cc2)n(C)c1=O
HCT-116
  Activity: inactive
HOP-62
  growth inhibition (GI): 16.12%
NCI-H460
  Activity: inactive
MDA-MB-468
  Activity: inactive
MCF7
  Activity: inactive
A549
  Activity: inactive
NCI/ADR-RES
  Activity: inactive
SARS-CoV-2
  IC50: 38.4 µM
SNB-19
  Activity: inactive
BT-549
  Activity: inactive
T47D
  Activity: inactive
786-0
  Activity: inactive
[1]
  selectivity ratio: 103
OVCAR-3
  Activity: inactive
COLO 205
  Activity: inactive
OVCAR-5
  Activity: inactive
ACHN
  Activity: inactive
SF-539
  Activity: inactive
HCT-15
  Activity: inactive
NCI-H226
  Activity: inactive
CCRF-CEM
  Activity: inactive
SK-MEL-5
  Activity: inactive
SK-MEL-2
  Activity: inactive
OVCAR-4
  Activity: inactive
SK-MEL-28
  Activity: inactive
OVCAR-8
  Activity: inactive
SW-620
  Activity: inactive
Hs578Bst
  Activity: inactive
TK-10
  Activity: inactive
SR
  Activity: inactive
PC-3
  Activity: inactive
RXF 393
  Activity: inactive
A498
  Activity: inactive
Malme-3M
  Activity: inactive
HCC 2998
  Activity: inactive
KM12
  Activity: inactive
NCI-H322M
  Activity: inactive
SNB-75
  Activity: inactive
MDA-MB-231
  Activity: inactive
HOP-92
  Activity: inactive
NCI-H522
  Activity: inactive
MOLT-4
  Activity: inactive
UACC-257
  Activity: inactive
HT-29
  Activity: inactive
M14
  Activity: inactive
IGROV-1
  Activity: inactive
UO-31
  Activity: inactive
K562
  Activity: inactive
LOX IMVI
  Activity: inactive
EKVX
  Activity: inactive
SN12C
  Activity: inactive
NCI-H23
  Activity: inactive
MDA-MB-435
  Activity: inactive
SF-295
  Activity: inactive
[2]
  CC50 at 72 h: 3940 µM
HL-60(TB)
  Activity: inactive
DU-145
  Activity: inactive
RPMI-8226
  Activity: inactive
SK-OV-3
  Activity: inactive
SF-268
  Activity: inactive
U-251
  Activity: inactive
CAKI-1
  Activity: inactive
